Data from patent US20260314594A1, “METHODS OF ENHANCING POLLEN VIABILITY OF PLANTS” (ACADEMIA SINICA, priority 2022, published 2026).

How the values were obtained:
[1] = test system: Easter lily pollen; assay: Easter lily pollen germination in vitro (germination rate in germination medium); format: cell-based, Easter lily (Lilium longiflorum Thunb. cv White Heaven)
Description: Pollen and stigma exudate (SE) were collected from more than ten thousand Easter lily (Lilium longiflorum Thunb. cv White Heaven) flowers. After dehydration at room temperature for 4 to 5 days, pollen grains were collected from dehydrated anthers. Pistils were harvested and used for SE collection. In general, 20~50 μL SE collected from a single ‘White Heaven’ pistil will be stored at −20° C. for further usage.
(§1) Lily pollen was cultured in a germination medium (GM) containing 12.7 mM CaCl2), 1.62 mM H3BO3, 9.9 mM KNO3, and 10% sucrose, pH5.2 at 28° C. for 2 hours with shaking at 50 rpm in the dark. Tobacco (Nicotiana tabacum) pollen was germinated in GM containing 1 mM CaCl2), 1 mM KCl, 1.6 mM H3BO3, 5% sucrose, 30 μM CuSO4, 15 mM MES, and 12.5% PEG4000, pH 5.9 at 25° C. for 2 hours with shaking at 50 rpm in the dark. Arabidopsis (Arabidopsis thaliana, Col-0) pollen was germinated in GM containing 5 mM CaCl2), 1 mM MgSO4·5 mM KCl·0.01% H3BO3, 10% Sucrose, pH 7.5 at 25° C. for 2 hours with shaking at 50 rpm in the dark. An Olympus BX51 microscope recorded germinating pollen. Pollen germination rate was calculated using the formula below: Pollen germination rate (%)=number of germinated pollen grains per field of view by the total number of pollen grains per field of view X100.
(§2) ImageJ measured pollen tube length and Western blot band intensity quantification. All P-values were calculated by One-way ANOVA (Analysis Of Variance) and Tukey's post hoc tests with SPSS
To validate the effect of HOPA on the stimulation of pollen germination, lily pollen grains were cultured in the GM containing 0, 10, 50, 100, and 200 ppm (part per million) of artificial HOPA for different time intervals.
SE has shown its effect on restoring the lost germination capability of pollen stored at low temperatures for a specific period (FIGS. 1A-1E). To validate whether the purified HOPA is the cause to rescue pollen germination capability, pollen grains stored for different time intervals (1 day, 2.5, or 5 months) were subjected to germination assays with or without 100 ppm artificial HOPA present in the GM.
High temperature is an adverse factor for pollen viability (Rang et al., 2011). We further investigated the effect of HOPA on the restoration of pollen viability after heat damage. Freshly collected lily pollen were pre-heat treatments at 28, 37, and 42° C. for 4 hours, followed by subjecting for germination in the GM with or without HOPA at 28° C. for 2 hours.
Low temperature is another adverse factor for pollen germination and growth. […] For the control, about 8% of pollen was germinated after 3-hour culture, but HOPA rescued the pollen germination up to about 29% germination rate (FIGS. 6E-6F).

[2] = test system: Nicotiana tabacum pollen; assay: Tobacco pollen germination in vitro; format: cell-based; conditions: HOPA at 25° C. for 2 hours; FIG. 8A: 50-1600 ppm, 1.5 hours
Description: as §1, with “Tobacco (Nicotiana tabacum) pollen was germinated in GM containing 1 mM CaCl2), 1 mM KCl, 1.6 mM H3BO3, 5% sucrose, 30 μM CuSO4, 15 mM MES, and 12.5% PEG4000, pH 5.9 at 25° C. for 2 hours with shaking at 50 rpm in the dark.” left out
as §2
(§3) To investigate the possibility that HOPA can stimulate diverse-species pollen germination, we examined Nicotiana tabacum and Arabidopsis thaliana (Col-0) pollen in GM with or without HOPA at 25° C. for 2 hours. […] Those results reveal the promising universal function of HOPA in stimulating pollen germination.

[3] = test system: Arabidopsis thaliana (Col-0) pollen; assay: Arabidopsis pollen germination in vitro; format: cell-based; conditions: HOPA at 25° C. for 2 hours; FIG. 8B: 200 ppm, 2.5 hours
Description: as §1, with “Arabidopsis (Arabidopsis thaliana, Col-0) pollen was germinated in GM containing 5 mM CaCl2), 1 mM MgSO4·5 mM KCl·0.01% H3BO3, 10% Sucrose, pH 7.5 at 25° C. for 2 hours with shaking at 50 rpm in the dark.” left out
as §2, §3

[4] = test system: lily pollen tube; assay: Lily pollen tube elongation; format: cell-based, Easter lily (Lilium longiflorum Thunb. cv White Heaven); conditions: 100 ppm HOPA
Description: as §1, §2
We germinated lily pollen in GM with or without 100 ppm HOPA at 28° C. for different time intervals to obtain their growth rates.

CC(C)(CO)C(O)C(=O)NCCCC(=O)O (centres unmarked) [HOPA, hopantenic acid]
pollen germination rate, HOPA dose response ([1]; 0, 10, 50, 100 and 200 ppm HOPA in GM, 28° C., FIG. 5: 2 hours, pollen stored at 4° C. one week): linear-gradient increase in a HOPA dosage-dependent manner | pollen germination, significance of stimulation ([1]; 10-200 ppm HOPA, 28° C., 2 hours, pollen stored at 4° C. one week (FIGS. 5A-5G)): significantly stimulates Easter lily pollen germination | pollen germination rate at low temperature ([1]; 18° C., 3-hour culture, 100 ppm HOPA, control about 8% (FIGS. 6E-6F)): about 29% | pollen germination at low temperature, in words ([1]; 18° C., 3-hour growth, 100 ppm HOPA (FIGS. 6E-6F)): partially rescued pollen germination rate at low-temperature conditions | pollen germination rates of HOPA compared with 1/10 SE ([1]; 100-200 ppm HOPA (FIG. 5G) vs 1/10 SE (about 785 ppm HOPA)): comparable effects in pollen germination rates | pollen germination of long-time stored pollen ([1]; pollen stored at 4° C. for 1 day, 2.5 or 5 months, 100 ppm HOPA, 28° C., 2 hours (FIGS. 6A-6B)): validly stimulates pollen germination in all stored pollen grains, especially for 5-month stored pollen germination | pollen germination after heat damage ([1]; pre-heat treatment at 28, 37 and 42° C. for 4 hours, then 100 ppm HOPA at 28° C. for 2 hours (FIGS. 6C-6D)): compromised the heat stress causing a decrease in pollen germination | Nicotiana tabacum pollen germination [2]: significantly stimulated | Arabidopsis thaliana pollen germination [3]: significantly stimulated | pollen tube elongation rate, in words ([4]; 28° C. (FIG. 7), compared to GM only): accelerated the pollen tube elongation rate | pollen tube elongation rate (slope) ([4]; 28° C., different time intervals, control slope 0.0066 (FIG. 7)): 0.0109
